In US12310365B2 (priority 2009, dated 2025):
Structures can show the parent of a compound that is named as a salt. Where two headings read alike, the source gives them in different places.

Experiments:
Format in all cases: in vivo
Phytophthora infestans [1] = assay: whole plant or invertebrate; settings: in Solanum lycopersicum, topical, 168 h, read-out: Control value
Phytophthora infestans [2] = assay: whole plant or invertebrate; settings: in Solanum lycopersicum, topical, 168 h, read-out: Control value; remark: listed apart in the source
[3] = system: Pseudoperonospora cubensis; assay: Cucumber downy mildew preventive test; settings: Pseudoperonospora cubensis, topical, 168 h; for pest or weed control at 10 ppm: treatment concentration 10 ppm
[4] = system: Pseudoperonospora cubensis; assay: Cucumber downy mildew curative test; settings: Pseudoperonospora cubensis, topical, 168 h, single ingredient; for pest or weed control at 10 ppm: treatment concentration 10 ppm
[5] = system: Botrytis cinerea (Diethofencarb-resistant strain); assay: Tomato gray mold preventive test (Diethofencarb-resistant strain); settings: Botrytis cinerea, topical, 48 h, read-out: Control value
Pyricularia oryzae [6] = assay: whole plant or invertebrate; settings: topical, 168 h, read-out: Control value
Pyricularia oryzae [7] = assay: whole plant or invertebrate; settings: topical, 168 h, read-out: Control value; remark: listed apart in the source
Sphaerotheca fuliginea [8] = assay: Cucumber powdery mildew preventive test; settings: Podosphaera fuliginea, topical, 168 h; treatment concentration 10 ppm
Sphaerotheca fuliginea [9] = assay: Cucumber powdery mildew curative test; settings: Podosphaera fuliginea, topical, 168 h; treatment concentration 10 ppm
[10] = treatment concentration 160 ppm

SMILES	pest or weed control at 40 ppm (Phytophthora infestans [1])	pest or weed control at 40 ppm (Phytophthora infestans [2])	pest or weed control at 40 ppm ([3]; treatment concentration 40 ppm)	pest or weed control at 40 ppm ([4]; treatment concentration 40 ppm)	pest or weed control at 10 ppm [5]	pest or weed control at 10 ppm (Pyricularia oryzae [6])	pest or weed control at 10 ppm (Pyricularia oryzae [7])	pest or weed control at 10 ppm (Sphaerotheca fuliginea [8])	pest or weed control at 10 ppm (Sphaerotheca fuliginea [9])	pest or weed control at 10 ppm (Phytophthora infestans [1])	pest or weed control at 10 ppm (Phytophthora infestans [2])	pest or weed control at 10 ppm [3]	pest or weed control at 10 ppm [4]	pest or weed control at 160 ppm (Phytophthora infestans [1])	pest or weed control at 160 ppm (Phytophthora infestans [2])	pest or weed control at 160 ppm [3, 10]	pest or weed control at 160 ppm [4, 10]
N#Cc1c(Cl)c(Cl)c(Cl)c(C#N)c1Cl [TPN, Chlorothalonil (TPN)]	0%	0%	60%	83%	–	–	–	–	–	–	–	–	–	–	–	–	–
CC1(C)N=C(c2cnc3ccccc3c2)c2ccccc2C1(F)F [B, 3-(4,4-difluoro-3,3-dimethyl-3,4-dihydroisoquinolin-1-yl)quinoline]	–	–	–	–	83%	83%	86%	60%	73%	0%	0%	28%	33%	–	–	–	–
CC1(C)N=C(c2cnc3ccccc3c2)c2cccc(F)c2C1(C)C [Compound A, 3-(5-fluoro-3,3,4,4-tetramethyl-3,4-dihydroisoquinolin-1-yl)quinoline]	–	–	–	–	83%	–	–	50%	67%	0%	0%	20%	17%	–	–	–	–
CCCOC(=O)NCCCN(C)C [Propamocarb hydrochloride]	–	–	–	–	–	–	–	–	–	–	–	–	–	0%	0%	20%	0%
CC1(C)N=C(c2cnc3ccccc3c2)c2cccc(F)c2C1(F)F [C, 3-(4,4,5-trifluoro-3,3-dimethyl-3,4-dihydroisoquinolin-1-yl)quinoline]	–	–	–	–	80%	–	–	65%	73%	0%	0%	33%	33%	–	–	–	–
